{
  "source": "patent US12252503B2",
  "about": "“Cannabinoid derivatives” (priority 2019, dated 2025)",
  "key": {"human CB2 receptor": {"biological_target": "T1, human CB2 receptor (Homo sapiens, UniProt P34972)", "T1 construct": "host or cells: CHO-K1 (Chinese hamster ovary) cells, membrane preparation", "T1 sequence (P34972 whole entry)": "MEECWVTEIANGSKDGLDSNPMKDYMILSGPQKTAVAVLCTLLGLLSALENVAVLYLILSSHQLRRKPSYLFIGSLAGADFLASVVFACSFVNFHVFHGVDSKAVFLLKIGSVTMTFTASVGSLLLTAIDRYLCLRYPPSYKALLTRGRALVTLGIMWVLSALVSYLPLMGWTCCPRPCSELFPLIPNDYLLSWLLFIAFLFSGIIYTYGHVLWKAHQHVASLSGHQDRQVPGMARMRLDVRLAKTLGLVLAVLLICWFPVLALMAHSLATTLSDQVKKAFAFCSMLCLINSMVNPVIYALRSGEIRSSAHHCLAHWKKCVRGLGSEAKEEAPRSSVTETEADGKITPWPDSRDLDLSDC", "assay": "CB2 radioligand competitive binding assay ([3H]CP 55,940 displacement)", "conditions": "for Selectivity CB2 (fold difference in selectivity between CB1 and CB2 binding): given in the column of the receptor with the higher binding affinity, 1.00 in both = about the same affinity; for IC50: membranes of CHO-K1 cells expressing human CB2 receptor, 0.6 nM [3H]CP55,940", "method": "The membranes were prepared from CHO-K1 (Chinese hamster ovary) cells stably transfected with the human CB2 receptor (Cat. #ES-111-C; Perkin Elmer, Boston, MA). The cells were grown adherently and maintained in Ham's F12 medium containing 10% fetal bovine serum (FBS), penicillin, streptomycin and geneticin (G418) at 37° C. in a humid atmosphere of 5% CO2 following the manufacturer's instructions.\nFor membrane preparation the cells were washed with PBS and scraped off the plates in cold homogenization buffer (25 mM HEPES (pH 7.4), 2 mM EDTA) containing protease inhibitor cocktail (Sigma Cat. #P8340). The cell suspension was homogenized with a Pro-PK-01200D Polytron Homogenizer (Pro Scientific) and then centrifuged for 30 min at 120,000×g. The supernatant was discarded and the pellet was re-suspended in the homogenization buffer and stored at −80° C. until the time of use.\nIn this experiment, 3H radiolabeled CP 55,940, i.e. [3H]CP 55,940 (Perkin Elmer, Boston, MA), was used as a radioligand for the CB2 receptor to determine the binding affinity of compounds for the CB2 receptor (Scheme 4; above).\nThe competition binding experiments (single dose and dose-response) were performed by incubating 0.6 nM of [3H]CP55,940 (specific activity 101 Ci/mmol, Perkin Elmer) and different concentrations of compounds disclosed herein with membranes prepared as above from CHO-K1 cells expressing human CB2 receptor (1 μg of protein/well), 50 mM Tris-HCl (pH 7.4), 5 mM MgCl2, 1 mM CaCl2, and 2 mg/mL BSA.\nFor the single dose experiments, the compound stocks (usually 10 mM in DMSO) were diluted to working stocks in the binding buffer to give the final compound concentrations of 10 μM and 1 μM. For the dose-response experiments the test compounds were sequentially diluted to provide the desired concentration range for the IC50 determination. In each case the compounds were pre-incubated with the membrane for 20 min, before adding the radioligand.\nAfter incubation with the radioligand for 60 min at 37° C., the incubation was terminated by rapid filtration of assay mixture through MultiScreen®HTS^+ 96-well filter plates (Millipore, Cat. #MSFCNXB), pre-soaked for 60 min with 50 mM Tris-HCl (pH 7.4) containing 0.33% polyethylenimine (PEI). The nonspecific binding (NSB) was determined in the presence of 10 μM unlabelled CP55,940. After drying the filter plate at 50° C. for at least 60 min, the filter-bound radioactivity was determined by scintillation spectrometry using the 1450 MicroBeta Plate Counter (Perkin Elmer, Boston, MA). From the dose-response experiments, the IC50 values were determined (see Table 1, CB2 IC50)."}, "human CB1 receptor [1]": {"biological_target": "T2, human CB1 receptor (Homo sapiens, UniProt P21554)", "T2 construct": "host or cells: CHO-K1 (Chinese hamster ovary) cells, membrane preparation", "T2 sequence (P21554 whole entry)": "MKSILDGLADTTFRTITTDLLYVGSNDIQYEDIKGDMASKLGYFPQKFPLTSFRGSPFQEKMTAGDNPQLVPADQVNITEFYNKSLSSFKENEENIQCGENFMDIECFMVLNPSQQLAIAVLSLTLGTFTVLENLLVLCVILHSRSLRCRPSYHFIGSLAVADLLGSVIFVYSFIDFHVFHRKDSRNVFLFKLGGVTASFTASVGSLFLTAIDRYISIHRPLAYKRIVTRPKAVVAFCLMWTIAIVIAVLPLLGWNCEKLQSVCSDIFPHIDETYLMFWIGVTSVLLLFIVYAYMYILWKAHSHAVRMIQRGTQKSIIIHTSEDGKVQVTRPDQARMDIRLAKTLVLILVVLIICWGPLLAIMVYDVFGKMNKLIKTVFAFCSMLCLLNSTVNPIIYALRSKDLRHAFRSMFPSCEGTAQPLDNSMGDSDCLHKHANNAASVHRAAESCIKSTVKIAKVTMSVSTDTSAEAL", "assay": "CB1 radioligand competitive binding assay ([3H]CP 55,940 displacement)", "conditions": "for IC50: membranes of CHO-K1 cells expressing human CB1 receptor, 0.8 nM [3H]CP 55,940"}, "human CB1 receptor [2]": {"biological_target": "T2, human CB1 receptor", "assay": "PathHunter β-Arrestin functional assay, CB1 receptor, agonist mode", "type": "cell-based", "conditions": "PathHunter CHO-K1 CNR1 β-Arrestin cells, normalized to CP55,940"}, "human CB1 receptor [3]": {"biological_target": "T2, human CB1 receptor", "assay": "PathHunter β-Arrestin functional assay, CB1 receptor, antagonist mode", "type": "cell-based", "conditions": "range stated for the group of compounds, read-out: IC50 towards human CB1 receptor in antagonist mode"}},
  "data": [
    {"molecule": "CCCCCc1cc(O)c(C2C=C(C)CCC2)c(OP(=O)(OCC)c2ccccc2)c1", "note": "(stereo not drawn) [Example 34c, ethyl (6-hydroxy-5′-methyl-4-pentyl-1′,2′,3′,4′-tetrahydro-[1,1′-biphenyl]-2-yl) phenylphosphonate]", "values": [
      {"measurement": "Selectivity CB2 (fold difference in selectivity between CB1 and CB2 binding)", "setting": "human CB2 receptor", "result": 1.69, "unit": "fold"},
      {"measurement": "IC50", "setting": "human CB2 receptor", "result": "1000 to 4990", "unit": "nM"},
      {"measurement": "IC50", "setting": "human CB1 receptor [1]", "result": "1000 to 4990", "unit": "nM"}
    ]},
    {"molecule": "CCCCCc1cc(O)c(-c2cccc(C)c2)c(OP(=O)(OCC)c2ccccc2)c1", "note": "(stereo not drawn) [Example 34a, ethyl (6-hydroxy-3′-methyl-4-pentyl-[1,1′-biphenyl]-2-yl) phenylphosphonate]", "values": [
      {"measurement": "Selectivity CB2 (fold difference in selectivity between CB1 and CB2 binding)", "setting": "human CB2 receptor", "result": 10.26, "unit": "fold"},
      {"measurement": "IC50", "setting": "human CB2 receptor", "result": "< 500", "unit": "nM"},
      {"measurement": "IC50", "setting": "human CB1 receptor [1]", "result": "1000 to 4990", "unit": "nM"}
    ]},
    {"molecule": "CCCCCCC(C)(C)c1cc(O)c(C2C=C(C)CCC2)c(OP(=O)(Cc2ccccc2)OC)c1", "note": "(stereo not drawn) [Example 38c, 6-hydroxy-5′-methyl-4-(2-methyloctan-2-yl)-1′,2′,3′,4′-tetrahydro-[1,1′-biphenyl]-2-yl methyl benzylphosphonate]", "values": [
      {"measurement": "activity towards the human CB1 receptor in agonist mode", "setting": "human CB1 receptor [2]", "result": "minimal to no activity"},
      {"measurement": "Selectivity CB2 (fold difference in selectivity between CB1 and CB2 binding)", "setting": "human CB2 receptor", "result": 4.96, "unit": "fold"},
      {"measurement": "IC50", "setting": "human CB2 receptor", "result": "500 to 990", "unit": "nM"},
      {"measurement": "IC50", "setting": "human CB1 receptor [3]", "result": "780 to 3000", "unit": "nM"},
      {"measurement": "IC50", "setting": "human CB1 receptor [1]", "result": "1000 to 4990", "unit": "nM"}
    ]},
    {"molecule": "CCCCCc1cc(O)c(C2C=C(C)CCC2)c(OP(=O)(Cc2ccccc2)OC)c1", "note": "(stereo not drawn) [Example 4c, 6-hydroxy-5′-methyl-4-pentyl-1′,2′,3′,4′-tetrahydro-[1,1′-biphenyl]-2-yl methyl benzylphosphonate]", "values": [
      {"measurement": "Selectivity CB2 (fold difference in selectivity between CB1 and CB2 binding)", "setting": "human CB2 receptor", "result": 1.54, "unit": "fold"},
      {"measurement": "IC50", "setting": "human CB2 receptor", "result": "1000 to 4990", "unit": "nM"},
      {"measurement": "IC50", "setting": "human CB1 receptor [1]", "result": "1000 to 4990", "unit": "nM"}
    ]},
    {"molecule": "C=C(C)C1CCC(C)=CC1c1c(O)cc(CCCCC)cc1OP(=O)(Cc1ccccc1)OC", "note": "(stereo not drawn) [Example 4d, 6-hydroxy-5′-methyl-4-pentyl-2′-(prop-1-en-2-yl)-1′,2′,3′,4′-tetrahydro-[1,1′-biphenyl]-2-yl methyl benzylphosphonate]", "values": [
      {"measurement": "activity towards the human CB1 receptor in agonist mode", "setting": "human CB1 receptor [2]", "result": "minimal to no activity"},
      {"measurement": "Selectivity CB2 (fold difference in selectivity between CB1 and CB2 binding)", "setting": "human CB2 receptor", "result": 1.00, "unit": "fold"},
      {"measurement": "IC50", "setting": "human CB2 receptor", "result": "< 500", "unit": "nM"},
      {"measurement": "IC50", "setting": "human CB1 receptor [3]", "result": "780 to 3000", "unit": "nM"},
      {"measurement": "Selectivity CB1 (fold difference in selectivity between CB1 and CB2 binding)", "setting": "human CB1 receptor [1]; given in the column of the receptor with the higher binding affinity, 1.00 in both = about the same affinity", "result": 1.00, "unit": "fold"},
      {"measurement": "IC50", "setting": "human CB1 receptor [1]", "result": "< 500", "unit": "nM"}
    ]},
    {"molecule": "CCCCCCC(C)(C)c1cc(O)c(C2C=C(C)CCC2)c(OP(=O)(OC)c2ccccc2)c1", "note": "(stereo not drawn) [Example 37c, 6-hydroxy-5′-methyl-4-(2-methyloctan-2-yl)-1′,2′,3′,4′-tetrahydro-[1,1′-biphenyl]-2-yl methyl phenylphosphonate]", "values": [
      {"measurement": "activity towards the human CB1 receptor in agonist mode", "setting": "human CB1 receptor [2]", "result": "minimal to no activity"},
      {"measurement": "IC50", "setting": "human CB1 receptor [3]", "result": "780 to 3000", "unit": "nM"}
    ]},
    {"molecule": "C=C(C)C1CCC(C)=CC1c1c(O)cc(C(C)(C)CCCCCC)cc1OP(=O)(Cc1ccccc1)OCC", "note": "(stereo not drawn) [Example 39d, ethyl (6-hydroxy-5′-methyl-4-(2-methyloctan-2-yl)-2′-(prop-1-en-2-yl)-1′,2′,3′,4′-tetrahydro-[1,1′-biphenyl]-2-yl) benzylphosphonate]", "values": [
      {"measurement": "Selectivity CB2 (fold difference in selectivity between CB1 and CB2 binding)", "setting": "human CB2 receptor", "result": 1.10, "unit": "fold"},
      {"measurement": "IC50", "setting": "human CB2 receptor", "result": "500 to 990", "unit": "nM"},
      {"measurement": "IC50", "setting": "human CB1 receptor [1]", "result": "500 to 990", "unit": "nM"}
    ]},
    {"molecule": "C=C(C)C1CCC(C)=CC1c1c(O)cc(C(C)(C)CCCCCC)cc1OP(=O)(OC)c1ccccc1", "note": "(stereo not drawn) [Example 37d, 6-hydroxy-5′-methyl-4-(2-methyloctan-2-yl)-2′-(prop-1-en-2-yl)-1′,2′,3′,4′-tetrahydro-[1,1′-biphenyl]-2-yl methyl phenylphosphonate]", "values": [
      {"measurement": "activity towards the human CB1 receptor in agonist mode", "setting": "human CB1 receptor [2]", "result": "minimal to no activity"},
      {"measurement": "Selectivity CB2 (fold difference in selectivity between CB1 and CB2 binding)", "setting": "human CB2 receptor", "result": 2.02, "unit": "fold"},
      {"measurement": "IC50", "setting": "human CB2 receptor", "result": "< 500", "unit": "nM"},
      {"measurement": "IC50", "setting": "human CB1 receptor [3]", "result": "780 to 3000", "unit": "nM"},
      {"measurement": "IC50", "setting": "human CB1 receptor [1]", "result": "500 to 990", "unit": "nM"}
    ]},
    {"molecule": "CCCCCc1cc(OP(=O)(OCC)c2ccccc2)c(-c2cccc(C)c2)c(OP(=O)(OCC)c2ccccc2)c1", "note": "(stereo not drawn) [34′a, diethyl (3′-methyl-4-pentyl-[1,1′-biphenyl]-2,6-diyl) bis(phenylphosphonate)]", "values": [
      {"measurement": "Selectivity CB2 (fold difference in selectivity between CB1 and CB2 binding)", "setting": "human CB2 receptor", "result": 1.95, "unit": "fold"},
      {"measurement": "IC50", "setting": "human CB2 receptor", "result": "1000 to 4990", "unit": "nM"},
      {"measurement": "IC50", "setting": "human CB1 receptor [1]", "result": "1000 to 4990", "unit": "nM"}
    ]},
    {"molecule": "C=C(C)C1CCC(C)=CC1c1c(O)cc(C(C)(C)CCCCCC)cc1OP(=O)(Cc1ccccc1)OC", "note": "(stereo not drawn) [Example 38d, 6-hydroxy-5′-methyl-4-(2-methyloctan-2-yl)-2′-(prop-1-en-2-yl)-1′,2′,3′,4′-tetrahydro-[1,1′-biphenyl]-2-yl methyl benzylphosphonate]", "values": [
      {"measurement": "activity towards the human CB1 receptor in agonist mode", "setting": "human CB1 receptor [2]", "result": "minimal to no activity"},
      {"measurement": "Selectivity CB2 (fold difference in selectivity between CB1 and CB2 binding)", "setting": "human CB2 receptor", "result": 1.82, "unit": "fold"},
      {"measurement": "IC50", "setting": "human CB2 receptor", "result": "< 500", "unit": "nM"},
      {"measurement": "IC50", "setting": "human CB1 receptor [3]", "result": "780 to 3000", "unit": "nM"},
      {"measurement": "IC50", "setting": "human CB1 receptor [1]", "result": "500 to 990", "unit": "nM"}
    ]},
    {"molecule": "CCCCCc1cc(O)c(C2C=C(C)CCC2)c(OP(=O)(Cc2ccccc2)OCC)c1", "note": "(stereo not drawn) [Example 35c, ethyl (6-hydroxy-5′-methyl-4-pentyl-1′,2′,3′,4′-tetrahydro-[1,1′-biphenyl]-2-yl) benzylphosphonate]", "values": [
      {"measurement": "Selectivity CB2 (fold difference in selectivity between CB1 and CB2 binding)", "setting": "human CB2 receptor", "result": 3.25, "unit": "fold"},
      {"measurement": "IC50", "setting": "human CB2 receptor", "result": "1000 to 4990", "unit": "nM"},
      {"measurement": "IC50", "setting": "human CB1 receptor [1]", "result": "≥ 5000", "unit": "nM"}
    ]},
    {"molecule": "CCCCCc1cc(O)c(-c2cccc(C)c2)c(OP(=O)(Cc2ccccc2)OCC)c1", "note": "(stereo not drawn) [Example 35a, ethyl (6-hydroxy-3′-methyl-4-pentyl-[1,1′-biphenyl]-2-yl) benzylphosphonate]", "values": [
      {"measurement": "IC50", "setting": "human CB2 receptor", "result": "1000 to 4990", "unit": "nM"}
    ]}
  ]
}
